The values that follow come from patent US10344024B2, “Compounds as ROR gamma modulators” (Glenmark Pharmaceuticals S.A., priority 2015, dated 2019).

For this experiment, the target named is T1, GST-tagged ROR gamma ligand binding domain (LBD) (Homo sapiens, UniProt P51449).
T1 construct: purchased Invitrogen
T1 sequence (P51449 269-508 limits assumed): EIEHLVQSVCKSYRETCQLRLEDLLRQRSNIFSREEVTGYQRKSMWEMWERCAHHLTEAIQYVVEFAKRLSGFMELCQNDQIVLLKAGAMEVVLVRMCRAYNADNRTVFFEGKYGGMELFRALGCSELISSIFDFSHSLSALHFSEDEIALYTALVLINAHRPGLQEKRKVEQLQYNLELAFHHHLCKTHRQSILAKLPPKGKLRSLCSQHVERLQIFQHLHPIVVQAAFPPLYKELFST
As to the kind of experiment: TR-FRET assay for ROR gamma (LanthaScreen co-activator peptide recruitment). The format is biochemical. The following applies: for inhibition at 1 µM: compound concentration 1 μM; for inhibition at 1 µM / inhibition at 10 µM: TR-FRET ratio 520/495, percent of control; for inhibition at 10 µM: compound concentration 10 μM; for IC50: from dose response curve, nonlinear regression, read-out: IC50 range. An outline of the steps: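 Antagonist-mode co-activator recruitment: 10 nM GST-RORγ LBD with compound (4% DMSO final) in 25 mM HEPES pH 7.4, 100 mM NaCl, 5 mM DTT, 0.01% BSA, 1 h at 22° C.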

On to `CC(O)C(F)(F)c1ccc(CC(=O)Nc2ccc(-c3nccnc3N[C@@H](C)c3ccccc3Cl)cc2)cc1` (stereo partly drawn) [Example 68, N-(4-(3-(((S)-1-(2-Chlorophenyl)ethyl)amino)pyrazin-2-yl)phenyl)-2-(4-(1,1-difluoro-2-hydroxypropyl)phenyl)acetamide], for which the inhibition at 1 µM was determined as 93.5%, the inhibition at 10 µM stood at 96.9% and the IC50 was less than 0.05 µM.
For `CCC(F)(F)c1ccc(CC(=O)Nc2ccc(-c3nccnc3N[C@@H](C)c3ccc(C)cc3C)cc2)cc1` [Example 69, (S)-2-(4-(1,1-Difluoropropyl)phenyl)-N-(4-(3-((1-(2,4-dimethylphenyl)ethyl)amino)pyrazin-2-yl)phenyl)acetamide], the inhibition at 1 µM was 97%, the inhibition at 10 µM stood at 97.1% and the IC50 was less than 0.05 µM.
For `CCC(F)(F)c1ccc(CC(=O)Nc2ccc(-c3nccnc3N[C@@H](C)c3ccc(F)cc3Cl)cc2)cc1` [Example 70, (S)-N-(4-(3-((1-(2-Chloro-4-fluorophenyl)ethyl)amino)pyrazin-2-yl)phenyl)-2-(4-(1,1-difluoropropyl)phenyl)acetamide], the inhibition at 1 µM came out at 94.1%, the inhibition at 10 µM is 93.8% and the IC50 is less than 0.05 µM.
As to `CC(O)C(F)(F)c1ccc(CC(=O)Nc2ccc(-c3nccnc3NCC3CCCCC3)cc2)cc1` (centres unmarked) [Example 71, N-(4-(3-((Cyclohexylmethyl)amino)pyrazin-2-yl)phenyl)-2-(4-(1,1-difluoro-2-hydroxypropyl)phenyl)acetamide], the inhibition at 1 µM turned out to be 20.5% and the inhibition at 10 µM stood at 73.7%.
Turning to `CC(O)C(F)(F)c1ccc(CC(=O)Nc2ccc(-c3nccnc3N[C@@H](C)c3ccc(Cl)cc3)cc2)cc1` (stereo partly drawn) [Example 72, N-(4-(3-(((S)-1-(4-Chlorophenyl)ethyl)amino)pyrazin-2-yl)phenyl)-2-(4-(1,1-difluoro-2-hydroxypropyl)phenyl)acetamide], the inhibition at 1 µM was 86.9%, the inhibition at 10 µM came to 93.4% and the IC50 is less than 0.05 µM.
Taken in the same sequence, the figures for `CC(O)C(F)(F)c1ccc(CC(=O)Nc2ccc(-c3nccnc3N[C@@H](C)c3ccccc3Cl)cc2F)cc1` (stereo partly drawn) [Example 73, N-(4-(3-(((S)-1-(2-Chlorophenyl)ethyl)amino)pyrazin-2-yl)-2-fluorophenyl)-2-(4-(1,1-difluoro-2-hydroxypropyl)phenyl)acetamide] were 78.5%, 89.2% and 0.1 to 0.5 µM.
For the compound `CC(O)C(F)(F)c1ccc(CC(=O)Nc2ccc(-c3nccnc3N[C@@H](C)c3ccccc3Cl)c(F)c2)cc1` (stereo partly drawn) [Example 74, N-(4-(3-(((S)-1-(2-Chlorophenyl)ethyl)amino)pyrazin-2-yl)-3-fluorophenyl)-2-(4-(1,1-difluoro-2-hydroxypropyl)phenyl)acetamide], the inhibition at 1 µM came to 79.2%, the inhibition at 10 µM was found to be 89.9% and the IC50 was 0.05 to 0.1 µM.
Taken in the same sequence, the figures for `CCC(F)(F)c1ccc(CC(=O)Nc2ccc(-c3nccnc3OCc3ccccc3)cc2)cc1` [Example 75, N-(4-(3-(Benzyloxy)pyrazin-2-yl)phenyl)-2-(4-(1,1-difluoropropyl)phenyl)acetamide] were 75.7%, 84.2% and 0.05 to 0.1 µM.
On to `CCC(F)(F)c1ccc(CC(=O)Nc2ccc(-c3nccnc3OC(C)c3ccccc3)cc2)cc1` (centres unmarked) [Example 76, 2-(4-(1,1-Difluoropropyl)phenyl)-N-(4-(3-(1-phenylethoxy)pyrazin-2-yl)phenyl)acetamide], for which the inhibition at 1 µM was 78.1%, the inhibition at 10 µM was found to be 87.5% and the IC50 was in the range of 0.1 to 0.5 µM.
Consider `CCC(F)(F)c1ccc(CC(=O)Nc2ccc(-c3nccnc3OCc3ccc(F)cc3Cl)cc2)cc1` [Example 77, N-(4-(3-((2-Chloro-4-fluorobenzyl)oxy)pyrazin-2-yl)phenyl)-2-(4-(1,1-difluoropropyl)phenyl)acetamide], for which the inhibition at 1 µM came out at 80.5%, the inhibition at 10 µM was determined as 73.7% and the IC50 was less than 0.05 µM.
